This passage reports IC50 and Ki results from patent US9732094B2, “Arylquinazolines” (Merck Patent GmbH, priority 2013, dated 2017).

Structures are written as SMILES. Read-outs that look alike come from different tables or passages of the source.

In one data set the target is DNA-PK (Homo sapiens (Human), UniProt P78527). As to the kind of experiment: DNA-PK assay (biochemical), flashplate 33P-ATP kinase assay. Summed up:
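Radiometric kinase reaction in streptavidin-coated flashplates, stopped with 200 mM EDTA, then 30 min room-temperature incubation and saline washes.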

In data set [1] the target is DNA-PK phosphorylation at serine 2056 (Homo sapiens (Human), UniProt P78527). As to the kind of experiment: DNA-PK phosphorylation at serine 2056 (cellular), bleomycin-treated HCT116 cells, ELISA. As to conditions: read-out: IC50 pDNA-PK. The class given is cell-based. Summed up: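 HCT116 cells were treated with 10 μM bleomycin plus test compounds for six hours at 37 °C. Phospho-Ser2056 DNA-PK measured by chemiluminescent ELISA, normalised to total DNA-PKcs signal; DMSO control as blank.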

A further data set deals with Kv11.1 (hERG) (Homo sapiens (Human), UniProt Q12809). As to the kind of experiment: Kv11.1 (hERG) ion channel activity (patch clamp assay), HEK293 cells transfected with hERG gene.
Setting [2] is: cellular DNA-PK phosphorylation at serine 2056, HCT116.
Where [3] appears, read: read-out: Ki [Kv1.11 hERG], hERG patch clamp assay (cells without asterisk).
Setting [4] is: cellular, HCT116 cells, 10 μM bleomycin, six hours.
Setting [5] is: Ki [Kv1.11 hERG], patch clamp, HEK293 transfected with hERG gene.
[6] abbreviates: read-out: Ki [Kv1.11 hERG], patch clamp, HEK293 transfected with hERG gene.

Kv11.1 (hERG), sequence (Q12809 whole entry): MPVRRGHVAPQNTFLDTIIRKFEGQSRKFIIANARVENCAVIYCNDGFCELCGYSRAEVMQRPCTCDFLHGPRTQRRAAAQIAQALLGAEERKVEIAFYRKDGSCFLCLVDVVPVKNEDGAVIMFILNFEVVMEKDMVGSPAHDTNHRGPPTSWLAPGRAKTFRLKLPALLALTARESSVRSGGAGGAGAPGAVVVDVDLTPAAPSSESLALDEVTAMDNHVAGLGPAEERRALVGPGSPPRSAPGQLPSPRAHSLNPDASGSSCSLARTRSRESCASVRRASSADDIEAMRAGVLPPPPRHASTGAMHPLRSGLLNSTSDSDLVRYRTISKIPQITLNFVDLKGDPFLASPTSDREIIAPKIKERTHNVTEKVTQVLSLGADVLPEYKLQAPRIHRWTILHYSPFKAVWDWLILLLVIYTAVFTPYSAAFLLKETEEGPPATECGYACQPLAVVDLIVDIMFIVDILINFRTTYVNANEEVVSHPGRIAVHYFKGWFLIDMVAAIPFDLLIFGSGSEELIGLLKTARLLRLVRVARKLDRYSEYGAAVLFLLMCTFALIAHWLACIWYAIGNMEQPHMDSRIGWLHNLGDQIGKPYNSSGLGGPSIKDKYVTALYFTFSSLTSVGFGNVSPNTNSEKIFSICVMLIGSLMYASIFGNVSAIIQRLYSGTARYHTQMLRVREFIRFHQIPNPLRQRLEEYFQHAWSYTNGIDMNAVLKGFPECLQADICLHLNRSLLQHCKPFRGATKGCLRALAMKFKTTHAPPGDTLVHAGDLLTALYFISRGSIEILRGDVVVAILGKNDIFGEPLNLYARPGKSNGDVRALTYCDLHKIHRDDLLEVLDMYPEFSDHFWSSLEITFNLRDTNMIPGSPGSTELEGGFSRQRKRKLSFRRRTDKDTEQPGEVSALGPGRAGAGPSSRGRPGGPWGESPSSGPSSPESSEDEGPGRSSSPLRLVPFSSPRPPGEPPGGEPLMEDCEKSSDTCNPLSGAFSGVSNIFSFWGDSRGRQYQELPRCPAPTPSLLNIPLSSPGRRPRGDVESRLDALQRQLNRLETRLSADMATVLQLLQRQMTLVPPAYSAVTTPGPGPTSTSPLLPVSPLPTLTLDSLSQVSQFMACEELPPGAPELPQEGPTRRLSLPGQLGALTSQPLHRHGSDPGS

For the compound `Cn1c(C(O)c2cc(-c3ncnc4cc(N5CCOCC5)ccc34)ccc2Cl)cccc1=O` (stereo not drawn) [Example 400, 6-{[2-Chloro-5-(7-morpholin-4-yl-quinazolin-4-yl)-phenyl]hydroxy-methyl}-1-methyl-1H-pyridin-2-one], the figures for the IC50 (against DNA-PK (biochemical DNA-PK assay); in data set [1] (setting [2])) were under 0.003 µM and under 0.5 µM, respectively. Besides, the inhibition constant Ki on Kv11.1 (hERG) (Ki [Kv1.11 hERG], hERG patch clamp assay (cells without asterisk)) is 15 to 25 µM.

In the case of `OC(c1cc(-c2ncnc3cc(N4CCOCC4)ccc23)c(F)cc1Cl)c1nccn2ccnc12` (single isomer, unassigned) [Example 395, [2-Chloro-4-fluoro-5-(7-morpholin-4-yl-quinazolin-4-yl)-phenyl)imidazo-[1,2-a]pyrazin-8-yl-methanol], the IC50 at DNA-PK (biochemical DNA-PK assay) was 0.007 to 0.03 µM; in data set [1] (setting [2]) it was 5 to 10 µM. Also, at Kv11.1 (hERG) (human, HEK293 cells stably transfected with the hERG gene, Ki [Kv1.11 hERG], hERG patch clamp assay (cells without asterisk)), the inhibitory constant (Ki) was in the range of 15 to 25 µM.

As for `Cc1nccnc1[C@H](O)c1ccc(F)c(-c2ncnc3cc(N4CCOCC4)cnc23)c1` [Example 234, (R)-[4-Fluoro-3-(7-morpholin-4-yl-pyrido[3,2-d}-pyrimidin-4-yl)-phenyl]-(3-methyl-pyrazin-2-yl)-methanol], the IC50 was under 0.003 µM against DNA-PK (biochemical DNA-PK assay) and under 0.5 µM in data set [1] (setting [2]). Moreover, the Ki on Kv11.1 (hERG) (setting [3]) was over 25 µM.

For the compound `COc1nnc(C(O)c2cc(-c3ncnc4cc(N5CCOCC5)ccc34)c(F)cc2Cl)c2ccncc12` (stereo not drawn) [Example 40, [2-Chloro-4-fluoro-5-(7-morpholin-4-yl-quinazolin-4-yl)phenyl]-(4-methoxypyrido-[3,4-d}pyridazin-1-yl)-methanol], the IC50 against DNA-PK (enzymatic, 5 μM ATP) fell in the range of 0.007 to 0.03 µM; in data set [1] (setting [4]), 0.5 to 5 µM. Moreover, on Kv11.1 (hERG) (setting [5]), the inhibition constant Ki was 10 to 15 µM.

As to `OC(c1ccc2nccn2n1)c1cc(-c2ncnc3cc(N4CCOCC4)ccc23)c(F)cc1F` (single isomer, unassigned) [Example 21, [2,4-Difluoro-5-(7-morpholin-4-yl-quinazolin-4-yl)phenyl]-imidazo[1,2-b]pyridazin-6-ylmethanol], the IC50 is under 0.003 µM at DNA-PK (enzymatic, 5 μM ATP) and under 0.5 µM in data set [1] (setting [4]). Also, on Kv11.1 (hERG) (setting [6]), the Ki was over 25 µM.

Turning to `OC(c1ccc(F)c(-c2ncnc3cc(N4CCOCC4)ccc23)c1)c1nccnc1Cl` (stereo not drawn) [Example 54, (3-Chloro-pyrazin-2-yl)-[4-fluoro-3-(7-morpholin-4-yl-quinazolin-4-yl)phenyl]-methanol], the IC50 against DNA-PK (enzymatic, 5 μM ATP) is under 0.003 µM; in data set [1] (setting [4]), under 0.5 µM. In addition, the Ki on Kv11.1 (hERG) (setting [5]) was in the range of 15 to 25 µM.

`Cc1cnc(C(O)c2ccc(F)c(-c3ncnc4cc(N5CCOCC5)ccc34)c2)c(C)n1` (stereo not drawn) [Example 354, (3,5-Dimethyl-pyrazin-2-yl)-[4-fluoro-3-(7-morpholin-4-yl-quinazolin-4-yl)-phenyl]methanol]: the IC50 at DNA-PK (biochemical DNA-PK assay) is under 0.003 µM; in data set [1] (setting [2]), under 0.5 µM. In addition, the Ki on Kv11.1 (hERG) (setting [3]) is over 25 µM.

Consider `Cc1nccnc1[C@@H](O)c1ccc(F)c(-c2ncnc3cc(N4CCOCC4)cnc23)c1` [Example 233, (S)-[4-Fluoro-3-(7-morpholin-4-yl-pyrido[3,2-d}-pyrimidin-4-yl)-phenyl]-(3-methyl-pyrazin-2-yl)-methanol], for which the values for the IC50 (on DNA-PK (biochemical DNA-PK assay); in data set [1] (setting [2])) were 0.007 to 0.03 µM and 10 to 30 µM, respectively. Moreover, the Ki on Kv11.1 (hERG) (setting [3]) is over 25 µM.

Turning to `COc1nccnc1C(O)c1ccc(F)c(-c2ncnc3cc(N4CCOCC4)ccc23)c1` (stereo not drawn) [Example 38, [4-Fluoro-3-(7-morpholin-4-yl-quinazolin-4-yl)phenyl]-(3-methoxy-pyrazin-2-yl)methanol], the IC50 against DNA-PK (enzymatic, 5 μM ATP) is under 0.003 µM; in data set [1] (setting [4]), under 0.5 µM. For the same compound, on Kv11.1 (hERG) (setting [6]), the Ki is over 25 µM.

In the case of `Cn1cc(C(O)c2ccc(F)c(-c3ncnc4cc(N5CCOCC5)ccc34)c2)cn1` (stereo not drawn) [Example 191, [4-Fluoro-3-(7-morpholin-4-yl-quinazolin-4-yl)-phenyl]-(1-methyl-1H-pyrazol-4-yl)-methanol], the IC50 on DNA-PK (Table 5) was under 0.003 µM; in data set [1] (Table 5, HCT116 cells) it was 10 to 30 µM. At Kv11.1 (hERG) (read-out: Ki [Kv1.11 hERG], Table 5), the Ki is over 25 µM.

As for `O[C@@H](c1ccc(F)c(-c2ncnc3cc(N4CCOCC4)ccc23)c1)c1nccnc1Cl` [Example 28, (S)-(3-Chloro-pyrazin-2-yl)-[4-fluoro-3-(7-morpholin-4-yl-quinazolin-4-yl)phenyl]-methanol], the IC50 against DNA-PK (enzymatic, 5 μM ATP) was 0.007 to 0.03 µM; in data set [1] (setting [4]) it was 5 to 10 µM. The compound also registered a Ki on Kv11.1 (hERG) (setting [5]) of 15 to 25 µM.
